In patent US20100286145A1, “ISOPHTHALAMIDE DERIVATIVES INHIBITING BETA-SECRETASE ACTIVITY” (CoMentis, Inc., priority 2007, published 2010):
Read-outs that look alike come from different tables or passages of the source.

Assays:
[1] = biological target: memapsin 2 (Homo sapiens, UniProt P56817); assay: Inhibition of memapsin 2 beta-secretase activity (fluorogenic substrate FS-2); assay type: biochemical; conditions: memapsin 2, pH 4, 37° C., read-out: M2Ki
How it was run: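 Memapsin 2 pre-incubated 20 min with compound at pH 4, 37° C, then FS-2 substrate (MCA-SEVNLDAEFK-DNP, APP Swedish cleavage site) added. Rate of fluorescence increase compared with uninhibited controls, fitted to a tight-binding inhibition model.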

[2] = biological target: T1, memapsin 1 (Homo sapiens, UniProt Q9Y5Z0); assay: Inhibition of memapsin 1 beta-secretase activity (substrate peptide ELDLAVEFWHDR, MALDI-TOF); assay type: biochemical; conditions: read-out: M1Ki
T1 sequence (Q9Y5Z0 63-518): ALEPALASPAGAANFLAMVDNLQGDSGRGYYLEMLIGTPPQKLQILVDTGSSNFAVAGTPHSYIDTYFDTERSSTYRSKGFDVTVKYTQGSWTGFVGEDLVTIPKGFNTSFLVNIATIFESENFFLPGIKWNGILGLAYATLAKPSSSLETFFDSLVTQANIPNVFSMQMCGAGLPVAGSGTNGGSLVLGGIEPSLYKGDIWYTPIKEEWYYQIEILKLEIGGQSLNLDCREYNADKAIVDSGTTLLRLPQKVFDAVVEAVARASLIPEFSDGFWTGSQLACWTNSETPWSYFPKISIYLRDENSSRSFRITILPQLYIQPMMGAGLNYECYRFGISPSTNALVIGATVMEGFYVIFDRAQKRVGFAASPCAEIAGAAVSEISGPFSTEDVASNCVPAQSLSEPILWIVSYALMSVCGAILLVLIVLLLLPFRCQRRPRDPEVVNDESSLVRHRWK

[3] = biological target: cathepsin D (Homo sapiens, UniProt P07339); assay: Inhibition of cathepsin D activity (substrate peptide ELDLAVEFWHDR, MALDI-TOF); assay type: biochemical; conditions: read-out: CDKi
[4] = tested on: Aβ production in Chinese hamster ovary cells that over-express human APP695 with the London and Swedish mutations; assay: Cellular Aβ IC50 determination (Aβ40 sandwich ELISA); assay type: cell-based; conditions: Cricetulus griseus; cellular Aβ production; read-out: IC50
How it was run: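 CHO cells overexpressing human APP695 with London and Swedish mutations, seeded at 10% confluency, treated with compounds up to about 4 μM final (0.4% DMSO). Secreted Aβ40 measured by sandwich ELISA relative to control and fitted to a 4-parameter IC50 model.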

cathepsin D, sequence (P07339 65-412, species assumed): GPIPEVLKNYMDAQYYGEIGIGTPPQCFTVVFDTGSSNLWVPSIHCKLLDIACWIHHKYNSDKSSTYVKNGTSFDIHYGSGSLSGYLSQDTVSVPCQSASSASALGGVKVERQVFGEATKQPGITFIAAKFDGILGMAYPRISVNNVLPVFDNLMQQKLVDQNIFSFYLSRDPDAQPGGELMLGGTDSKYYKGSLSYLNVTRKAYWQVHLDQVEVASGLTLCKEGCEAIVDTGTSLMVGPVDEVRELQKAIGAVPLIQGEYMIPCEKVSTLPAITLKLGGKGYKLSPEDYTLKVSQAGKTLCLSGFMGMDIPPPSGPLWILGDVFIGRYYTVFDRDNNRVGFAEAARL
memapsin 2, sequence (P56817 46-501): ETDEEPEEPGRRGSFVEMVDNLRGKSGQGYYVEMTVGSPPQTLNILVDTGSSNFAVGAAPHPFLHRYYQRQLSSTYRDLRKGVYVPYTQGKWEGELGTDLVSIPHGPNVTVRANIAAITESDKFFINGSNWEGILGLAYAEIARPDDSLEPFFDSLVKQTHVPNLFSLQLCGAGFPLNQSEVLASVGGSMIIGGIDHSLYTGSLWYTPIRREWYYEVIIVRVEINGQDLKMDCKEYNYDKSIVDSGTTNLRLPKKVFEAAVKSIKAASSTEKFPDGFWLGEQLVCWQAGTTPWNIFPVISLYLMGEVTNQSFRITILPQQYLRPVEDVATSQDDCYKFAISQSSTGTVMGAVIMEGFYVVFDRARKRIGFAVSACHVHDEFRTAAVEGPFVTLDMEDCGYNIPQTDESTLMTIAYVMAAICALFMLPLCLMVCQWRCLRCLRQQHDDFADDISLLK

Question: Which Ki ([1]; 20 minutes pre-incubation) does the source give for COc1cccc(CNC[C@@H](O)[C@H](Cc2ccccc2)NC(=O)c2cc(OC)cc(C(=O)N(C)Cc3nc(C)cs3)c2)c1 [Compound 3, N1-((2S,3R)-3-hydroxy-4-(3-methoxybenzylamino)-1-phenylbutan-2-yl)-5-methoxy-N3-methyl-N3-((4-methylthiazol-2-yl)methyl)isophthalamide] here?
Answer: < 300 nM

Question: What about the Ki [2] of the same molecule?
Answer: 301 to 500 nM

Question: And the Ki [3]?
Answer: < 300 nM

Question: And the IC50 [4]?
Answer: < 1000 nM

Question: With COc1cc(CNC[C@@H](O)[C@H](Cc2ccccc2)NC(=O)c2cccc(C(=O)N(C)Cc3nc(C)cs3)c2)cc(OC)c1 [Compound 8, N1-((2S,3R)-4-(3,5-dimethoxybenzylamino)-3-hydroxy-1-phenylbutan-2-yl)-N3-methyl-N3-((4-methylthiazol-2-yl)methyl)isophthalamide] as the molecule, how does the Ki ([1]; 20 minutes pre-incubation) read?
Answer: < 300 nM

Question: And the Ki [2]?
Answer: 301 to 500 nM

Question: And the Ki [3]?
Answer: < 300 nM

Question: What about the IC50 [4] of the same molecule?
Answer: < 1000 nM

Question: Which Ki ([1]; 20 minutes pre-incubation) does the source give for COC(=O)c1cc(C(=O)N[C@@H](Cc2ccccc2)[C@H](O)CNCc2cccc(OC)c2)cc(C(=O)N(C)Cc2nc(C)cs2)c1 [Compound 17, methyl 3-((2S,3R)-3-hydroxy-4-(3-methoxybenzylamino)-1-phenylbutan-2-ylcarbamoyl)-5-(methyl((4-methylthiazol-2-yl)methyl)carbamoyl)benzoate] here?
Answer: < 300 nM

Question: What about the Ki [2] of the same molecule?
Answer: > 501 nM

Question: And the Ki [3]?
Answer: < 300 nM

Question: And the IC50 [4]?
Answer: < 1000 nM

Question: For C=Cc1cc(C(=O)N[C@@H](Cc2ccccc2)[C@H](O)CNCc2cccc(OC)c2)cc(C(=O)N(C)Cc2nc(C)cs2)c1 [Compound 21, N1-((2S,3R)-3-hydroxy-4-(3-methoxybenzylamino)-1-phenylbutan-2-yl)-N3-methyl-N3-((4-methylthiazol-2-yl)methyl)-5-vinylisophthalamide], which Ki ([1]; 20 minutes pre-incubation) is on record?
Answer: < 300 nM

Question: And the Ki [2]?
Answer: > 501 nM

Question: And the Ki [3]?
Answer: < 300 nM

Question: And the IC50 [4]?
Answer: < 1000 nM

Question: What does the source list for Cc1csc(CN(C(=O)c2cccc(C(=O)N[C@@H](Cc3ccccc3)[C@H](O)CNCc3cccc(C(F)(F)F)c3)c2)C2CC2)n1 [Compound 29, N1-cyclopropyl-N3-((2S,3R)-3-hydroxy-1-phenyl-4-(3-(trifluoromethyl)benzylamino)butan-2-yl)-N1-((4-methylthiazol-2-yl)methyl)isophthalamide]?
Answer: Ki ([1]; 20 minutes pre-incubation): < 300 nM; Ki [2]: 301 to 500 nM; Ki [3]: < 300 nM; IC50 [4]: < 1000 nM

Question: Which results are given for Cc1cc(C(=O)N[C@@H](Cc2ccccc2)[C@H](O)CNCc2cncc(C(C)C)c2)cc(C(=O)N(C)Cc2nc(C)cs2)c1 [Compound 32, N1-((2S,3R)-3-hydroxy-4-((5-isopropylpyridin-3-yl)methylamino)-1-phenylbutan-2-yl)-N3,5-dimethyl-N3-((4-methylthiazol-2-yl)methyl)isophthalamide]?
Answer: Ki ([1]; 20 minutes pre-incubation): < 300 nM; Ki [2]: < 300 nM; Ki [3]: < 300 nM; IC50 [4]: < 1000 nM

Question: What does the source list for Cc1csc(CN(C)C(=O)c2cccc(C(=O)N[C@@H](Cc3ccccc3)[C@H](O)CNCc3ccnc(C(C)C)c3)c2)n1 [Compound 33, N1-((2S,3R)-3-hydroxy-4-((2-isopropylpyridin-4-yl)methylamino)-1-phenylbutan-2-yl)-N3-methyl-N3-((4-methylthiazol-2-yl)methyl)isophthalamide]?
Answer: Ki ([1]; 20 minutes pre-incubation): < 300 nM; Ki [2]: 301 to 500 nM; Ki [3]: < 300 nM; IC50 [4]: < 1000 nM

Question: Which results are given for COc1cc(C(=O)N[C@@H](Cc2ccccc2)[C@H](O)CNCc2cncc(C(C)C)c2)cc(C(=O)N(C)Cc2nc(C)cs2)c1 [Compound 40, N1-((2S,3R)-3-hydroxy-4-((5-isopropylpyridin-3-yl)methylamino)-1-phenylbutan-2-yl)-5-methoxy-N3-methyl-N3-((4-methylthiazol-2-yl)methyl)isophthalamide]?
Answer: Ki ([1]; 20 minutes pre-incubation): < 300 nM; Ki [2]: < 300 nM; Ki [3]: < 300 nM; IC50 [4]: < 1000 nM

Question: With Cc1cc(C(=O)N[C@@H](Cc2ccccc2)[C@H](O)CNCc2cncc(C(C)C)c2)cc(C(=O)N(Cc2nc(C)cs2)C2CC2)c1 [Compound 41, N1-cyclopropyl-N3-((2S,3R)-3-hydroxy-4-((5-isopropylpyridin-3-yl)methylamino)-1-phenylbutan-2-yl)-5-methyl-N1-((4-methylthiazol-2-yl)methyl)isophthalamide] as the molecule, how does the Ki ([1]; 20 minutes pre-incubation) read?
Answer: < 300 nM

Question: And the Ki [2]?
Answer: < 300 nM

Question: What about the Ki [3] of the same molecule?
Answer: < 300 nM

Question: And the IC50 [4]?
Answer: < 1000 nM

Question: COc1cccc(CNC[C@@H](O)[C@H](Cc2ccccc2)NC(=O)c2cc(C(=O)N(C)Cc3nc(C)cs3)cc(C3=NCCO3)c2)c1 [Compound 46, 5-(4,5-dihydrooxazol-2-yl)-N1-((2S,3R)-3-hydroxy-4-(3-methoxybenzylamino)-1-phenylbutan-2-yl)-N3-methyl-N3-((4-methylthiazol-2-yl)methyl)isophthalamide] was tested. Which Ki ([1]; 20 minutes pre-incubation) did it give?
Answer: < 300 nM

Question: What about the Ki [2] of the same molecule?
Answer: > 501 nM

Question: What about the Ki [3] of the same molecule?
Answer: 301 to 500 nM

Question: What about the IC50 [4] of the same molecule?
Answer: < 1000 nM

Question: How did the Ki ([1]; 20 minutes pre-incubation) turn out when C[C@@H](NC(=O)c1cc(C(=O)N[C@@H](Cc2ccccc2)[C@H](O)CNCc2cccc(O)c2)cc(N(C)S(C)(=O)=O)c1)c1ccccc1 [Compound 71, N1-((2S,3R)-3-hydroxy-4-(3-hydroxybenzylamino)-1-phenylbutan-2-yl)-5-(N-methylmethylsulfonamido)-N3-((R)-1-phenylethyl)isophthalamide] was run?
Answer: < 300 nM

Question: What about the Ki [2] of the same molecule?
Answer: > 501 nM

Question: What about the Ki [3] of the same molecule?
Answer: > 501 nM

Question: What about the IC50 [4] of the same molecule?
Answer: < 1000 nM

Question: COc1cc(CNC[C@@H](O)[C@H](Cc2ccccc2)NC(=O)c2cccc(C(=O)N(C)Cc3nc(C)cs3)c2)cc(C(=O)O)c1 [Compound 72, 3-(((2R,3S)-2-hydroxy-3-(3-(methyl((4-methylthiazol-2-yl)methyl)carbamoyl)benzamido)-4-phenylbutylamino)methyl)-5-methoxybenzoic acid] was tested. Which Ki ([1]; 20 minutes pre-incubation) did it give?
Answer: < 300 nM

Question: What about the Ki [2] of the same molecule?
Answer: > 501 nM

Question: And the Ki [3]?
Answer: > 501 nM

Question: What about the IC50 [4] of the same molecule?
Answer: 1000 to 5000 nM

Question: Which Ki ([1]; 20 minutes pre-incubation) does the source give for C[C@@H](NC(=O)c1cc(C(=O)N[C@@H](Cc2ccccc2)[C@H](O)CNCc2cncc(C(F)(F)F)c2)cc(N(C)S(C)(=O)=O)c1)c1ccccc1 [Compound 81, N1-((2S,3R)-3-hydroxy-1-phenyl-4-((5-(trifluoromethyl)pyridin-3-yl)methylamino)butan-2-yl)-5-(N-methylmethylsulfonamido)-N3-((R)-1-phenylethyl)isophthalamide] here?
Answer: < 300 nM

Question: What about the Ki [2] of the same molecule?
Answer: < 300 nM

Question: And the Ki [3]?
Answer: > 501 nM

Question: What about the IC50 [4] of the same molecule?
Answer: < 1000 nM

Question: With COc1cccc(CNC[C@@H](O)[C@H](Cc2ccccc2)NC(=O)c2cc(C(N)=O)cc(C(=O)N[C@H](C)c3ccccc3)c2)c1 [Compound 91, N1-((2S,3R)-3-hydroxy-4-(3-methoxybenzylamino)-1-phenylbutan-2-yl)-N3-((R)-1-phenylethyl)benzene-1,3,5-tricarboxamide] as the molecule, how does the Ki ([1]; 20 minutes pre-incubation) read?
Answer: > 501 nM

Question: And the Ki [2]?
Answer: < 300 nM

Question: What about the Ki [3] of the same molecule?
Answer: > 501 nM

Question: What does the source list for Cc1csc(CN(C)C(=O)c2cc(C(=O)N[C@@H](Cc3ccccc3)[C@H](O)CNCc3cncc(C(C)C)c3)cc(-c3ncco3)c2)n1 [Compound 170, N1-((2S,3R)-3-hydroxy-4-((5-isopropylpyridin-3-yl)methylamino)-1-phenylbutan-2-yl)-N3-methyl-N3-((4-methylthiazol-2-yl)methyl)-5-(oxazol-2-yl)isophthalamide]?
Answer: Ki ([1]; 20 minutes pre-incubation): < 300 nM; Ki [2]: < 300 nM; IC50 [4]: < 1000 nM

Question: For Cc1csc(CN(C)C(=O)c2cccc(C(=O)N[C@@H](Cc3cc(F)cc(F)c3)[C@H](O)CNCc3cncc(C(C)C)c3)c2)n1 [Compound 208, N1-((2S,3R)-1-(3,5-difluorophenyl)-3-hydroxy-4-((5-isopropylpyridin-3-yl)methylamino)butan-2-yl)-N3-methyl-N3-((4-methylthiazol-2-yl)methyl)isophthalamide], which Ki ([1]; 20 minutes pre-incubation) is on record?
Answer: < 300 nM

Question: And the Ki [2]?
Answer: < 300 nM

Question: And the IC50 [4]?
Answer: < 1000 nM

Question: Which results are given for Cc1csc(CN(C)C(=O)c2cc(C(=O)N[C@@H](Cc3ccccc3)[C@H](O)CNCc3cncc(C(C)C)c3)cc(-c3cnco3)c2)n1 [Compound 218, N1-((2S,3R)-3-hydroxy-4-((5-isopropylpyridin-3-yl)methylamino)-1-phenylbutan-2-yl)-N3-methyl-N3-((4-methylthiazol-2-yl)methyl)-5-(oxazol-5-yl)isophthalamide]?
Answer: Ki ([1]; fluorogenic substrate FS-2): < 300 nM; Ki [2]: < 300 nM; IC50 [4]: < 1000 nM

Question: What does the source list for Cc1csc(CN(C)C(=O)c2cc(C(=O)N[C@@H](Cc3ccccc3)[C@H](O)CNCc3cncc(C(C)(C)F)c3)cc(N(C)C)c2)n1 [Compound 220, 5-(dimethylamino)-N1-((2S,3R)-4-((5-(2-fluoropropan-2-yl)pyridin-3-yl)methylamino)-3-hydroxy-1-phenylbutan-2-yl)-N3-methyl-N3-((4-methylthiazol-2-yl)methyl)isophthalamide]?
Answer: Ki ([1]; fluorogenic substrate FS-2): < 300 nM; Ki [2]: < 300 nM; IC50 [4]: < 1000 nM

Question: For Cc1csc(CN(C)C(=O)c2cccc(C(=O)N[C@@H](Cc3ccccc3)[C@H](O)CNCc3cc(CS(C)(=O)=O)cc(C(C)C)c3)c2)n1 [Compound 228, N1-((2S,3R)-3-hydroxy-4-(3-isopropyl-5-(methylsulfonylmethyl)benzylamino)-1-phenylbutan-2-yl)-N3-methyl-N3-((4-methylthiazol-2-yl)methyl)isophthalamide], which Ki ([1]; fluorogenic substrate FS-2) is on record?
Answer: < 300 nM

Question: And the Ki [2]?
Answer: 301 to 500 nM

Question: And the IC50 [4]?
Answer: < 1000 nM
